Source: ChEMBL document CHEMBL1141530, “Synthesis and SAR of 1-acetanilide-4-aminopyrazole-substituted quinazolines: selective inhibitors of Aurora B kinase with potent anti-tumor activity” (Bioorg Med Chem Lett, 2008)
In brackets after ≈: the same amount, converted by molar mass. Activity calls are given as the source filed them. The rule behind the calls is not given here.

What was measured:
Mus musculus [1] = assay: Inhibition of histone-H3 phosphorylation in human SW620 cells xenografted mouse at 2.5 mg/kg/day, sc after 48 hrs; assay type: functional; conditions: SW-620, sc, route subcutaneous
SW-620 [2] = assay: Antitumor activity against human SW620 cells xenografted in mouse assessed as tumor growth inhibition at 50 mg/kg after 24 hrs; assay type: functional; parameters: scale not given: the % may be the effect or the level left
SW-620 [3] = assay: Antiproliferative activity against human SW620 cells assessed as inhibition of DNA synthesis after 48 hrs by 2-h BrdU uptake assay; assay type: functional, cell-based
Mus musculus [4] = assay: Inhibition of histone-H3 phosphorylation in human SW620 cells xenografted mouse at 0.5 mg/kg/day, sc after 48 hrs; assay type: functional, organism-based; conditions: SW-620
SW-620 [5] = assay: Antitumor activity against human SW620 cells xenografted in mouse assessed as reduction in tumor size at 2.5 mg/kg after 48 hrs; assay type: functional, organism-based; parameters: dose 2.5 mg/kg
[6] = molecular target: Voltage-gated inwardly rectifying potassium channel KCNH2 (Homo sapiens, UniProt Q12809); assay: Inhibition of human ERG by automated whole cell electrophysiology
Cytochrome P450 3A4 = Cytochrome P450 3A4 (Homo sapiens, UniProt P08684); assay: Inhibition of human CYP3A4; assay type: ADME
[7] = Solubility in tris buffer at pH 9; assay type: physicochemical

Cytochrome P450 3A4, sequence (P08684 whole entry): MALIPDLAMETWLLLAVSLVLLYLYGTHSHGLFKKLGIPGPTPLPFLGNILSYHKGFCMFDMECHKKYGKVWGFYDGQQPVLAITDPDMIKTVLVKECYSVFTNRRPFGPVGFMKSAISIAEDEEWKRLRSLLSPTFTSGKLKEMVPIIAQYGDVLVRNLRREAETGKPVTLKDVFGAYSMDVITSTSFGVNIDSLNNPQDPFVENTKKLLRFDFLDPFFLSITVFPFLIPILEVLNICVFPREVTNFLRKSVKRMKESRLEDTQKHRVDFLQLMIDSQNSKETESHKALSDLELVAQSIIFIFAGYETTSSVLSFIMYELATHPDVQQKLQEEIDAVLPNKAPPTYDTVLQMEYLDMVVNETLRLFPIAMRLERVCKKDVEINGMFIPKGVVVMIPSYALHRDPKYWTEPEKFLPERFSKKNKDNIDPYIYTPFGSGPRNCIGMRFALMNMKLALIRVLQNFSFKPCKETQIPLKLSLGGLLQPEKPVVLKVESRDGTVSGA
Voltage-gated inwardly rectifying potassium channel KCNH2, sequence (Q12809 whole entry): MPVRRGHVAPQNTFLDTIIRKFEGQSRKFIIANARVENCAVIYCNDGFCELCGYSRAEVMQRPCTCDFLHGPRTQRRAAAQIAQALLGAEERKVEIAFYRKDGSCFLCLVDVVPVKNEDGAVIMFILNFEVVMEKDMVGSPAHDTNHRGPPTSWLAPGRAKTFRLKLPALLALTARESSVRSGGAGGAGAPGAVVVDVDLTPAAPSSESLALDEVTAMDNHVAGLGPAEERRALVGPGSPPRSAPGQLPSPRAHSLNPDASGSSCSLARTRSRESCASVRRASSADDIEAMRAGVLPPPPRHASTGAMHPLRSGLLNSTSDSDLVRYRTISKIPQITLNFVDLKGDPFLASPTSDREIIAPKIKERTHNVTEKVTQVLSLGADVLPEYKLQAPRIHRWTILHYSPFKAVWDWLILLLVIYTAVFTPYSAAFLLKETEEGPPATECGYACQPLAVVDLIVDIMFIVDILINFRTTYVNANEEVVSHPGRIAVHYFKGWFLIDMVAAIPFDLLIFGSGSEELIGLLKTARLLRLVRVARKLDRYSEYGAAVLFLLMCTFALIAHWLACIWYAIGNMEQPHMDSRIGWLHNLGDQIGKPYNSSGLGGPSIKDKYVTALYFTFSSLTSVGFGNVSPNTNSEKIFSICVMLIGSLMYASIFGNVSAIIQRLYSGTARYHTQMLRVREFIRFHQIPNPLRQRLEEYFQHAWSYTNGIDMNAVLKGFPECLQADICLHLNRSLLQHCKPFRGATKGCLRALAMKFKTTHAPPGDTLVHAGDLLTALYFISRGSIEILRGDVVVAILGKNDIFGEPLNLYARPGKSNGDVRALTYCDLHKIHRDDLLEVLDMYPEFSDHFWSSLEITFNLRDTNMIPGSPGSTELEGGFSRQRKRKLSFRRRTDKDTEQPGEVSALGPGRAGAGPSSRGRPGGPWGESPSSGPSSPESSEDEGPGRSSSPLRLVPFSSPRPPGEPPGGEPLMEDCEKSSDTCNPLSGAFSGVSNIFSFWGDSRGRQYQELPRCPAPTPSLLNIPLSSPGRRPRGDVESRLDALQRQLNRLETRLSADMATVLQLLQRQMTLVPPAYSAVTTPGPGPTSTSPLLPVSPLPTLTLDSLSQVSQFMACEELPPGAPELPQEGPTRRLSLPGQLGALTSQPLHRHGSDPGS

IC50 (SW-620 [3]): < 0.001 µM | IC50 (Cytochrome P450 3A4): 6.1 µM | solubility [7]: 10000 µg/mL (≈ 16.2 mM)
Structure (SMILES): O=C(Cn1cc(Nc2ncnc3cc(OCCCN4CCC[C@@H]4COP(=O)(O)O)ccc23)cn1)Nc1cccc(F)c1F
inhibition in vivo at 2.5 mg/kg/day (Mus musculus [1]): 75% | Activity (SW-620 [2]): 89% | Activity (Mus musculus [4]): Active | Activity (SW-620 [5]): Active | IC50 [6]: > 100 µM
